Experimental data taken from patent publication US10414811B2, “Protease-resistant lipidated GLP-1 analogs” (MEDIMMUNE LIMITED, priority 2015, dated 2019).
Read-outs that look alike come from different tables or passages of the source. Numbered stars: 1 amine (or outer) side, 2 acyl side, 3 side chain; on linkers, the order of the positions; unused ones are H or OH. Square brackets hold non-standard residues; d marks the D form. Side chains are listed from the residue outwards. Peptide text beside a SMILES is read from it. * marks the point of attachment. γGlu = O=C(O)[C@H](CCC(=O)[*:2])N[*:1]; αMeF = C[C@](N)(Cc1ccccc1)C(=O)O; αMeK = C[C@](N)(CCCCN)C(=O)O; Lauroyl = CCCCCCCCCCCC(=O)*; αMeS = C[C@](N)(CO)C(=O)O; AEEA = NCCOCCOCC(=O)O; Aib = CC(C)(N)C(=O)O

Experiments:
Assay type in all cases: cell-based
[1] = biological target: T1, human GLP-1 receptor (GLP-1R) (Homo sapiens, UniProt P43220); assay: cAMP assay, human GLP-1R cells
T1 construct: expressed in transfected cells
How it was run: (§1)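 Peptide-stimulated cAMP measured by two-step HTRF after a 30 min room-temperature incubation with receptor-expressing cells (hGLP-1R, hGIPR at 1×10^5 cells/ml; hGCGR at 2×10^5 cells/ml). Duplicate dilutions; EC50 from 4-parameter logistic fit of % Delta F.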

GLP-1R (INS1e assay) = biological target: T2, GLP-1R (INS1e assay) (Rattus norvegicus, UniProt P32301); assay: INS1e assay, cAMP activity at GLP-1R
T2 construct: endogenous in cells; host or cells: INS-1E cells
T2 sequence (P32301 22-463): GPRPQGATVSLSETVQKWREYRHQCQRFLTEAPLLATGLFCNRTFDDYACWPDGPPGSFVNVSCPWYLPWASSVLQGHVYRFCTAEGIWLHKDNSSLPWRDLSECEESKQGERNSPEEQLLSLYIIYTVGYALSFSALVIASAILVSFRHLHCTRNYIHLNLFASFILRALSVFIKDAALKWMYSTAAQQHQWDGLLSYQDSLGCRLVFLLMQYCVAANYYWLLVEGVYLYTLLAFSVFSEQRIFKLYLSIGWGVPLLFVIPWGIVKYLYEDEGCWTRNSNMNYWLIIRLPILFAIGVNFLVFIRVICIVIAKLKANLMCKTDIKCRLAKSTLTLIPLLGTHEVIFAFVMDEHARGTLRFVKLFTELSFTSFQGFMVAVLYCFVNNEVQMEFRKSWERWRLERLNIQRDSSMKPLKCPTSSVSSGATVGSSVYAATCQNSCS
How it was run: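 cAMP was quantified by two-step HTRF, using anti-cAMP cryptate donor and cAMP-d2 acceptor, each diluted 1/20 in conjugate and lysis buffer. EC50 values of the synthetic peptides were derived from the cAMP readout.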

[2] = biological target: T3, human glucose-dependent insulinotropic peptide receptor (GIPR) (Homo sapiens, UniProt P48546); assay: cAMP assay, human GIPR cells
T3 construct: expressed in transfected cells
T3 sequence (P48546 22-466): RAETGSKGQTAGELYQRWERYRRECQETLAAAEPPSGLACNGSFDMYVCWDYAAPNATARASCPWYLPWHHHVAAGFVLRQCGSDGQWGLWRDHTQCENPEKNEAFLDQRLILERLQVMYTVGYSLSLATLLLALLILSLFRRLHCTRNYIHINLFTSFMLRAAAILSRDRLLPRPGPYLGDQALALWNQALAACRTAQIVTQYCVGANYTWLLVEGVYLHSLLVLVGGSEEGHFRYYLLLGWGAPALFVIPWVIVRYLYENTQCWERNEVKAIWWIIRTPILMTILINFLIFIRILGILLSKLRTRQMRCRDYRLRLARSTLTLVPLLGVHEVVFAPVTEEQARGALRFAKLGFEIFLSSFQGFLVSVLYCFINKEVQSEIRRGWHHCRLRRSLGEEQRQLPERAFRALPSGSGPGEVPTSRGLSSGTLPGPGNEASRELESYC
How it was run: as §1

[3] = biological target: T4, human glucagon receptor (GCGR) (Homo sapiens, UniProt P47871); assay: cAMP assay, human GCGR cells
T4 construct: expressed in transfected cells
How it was run: as §1

T4 sequence (P47871 26-477): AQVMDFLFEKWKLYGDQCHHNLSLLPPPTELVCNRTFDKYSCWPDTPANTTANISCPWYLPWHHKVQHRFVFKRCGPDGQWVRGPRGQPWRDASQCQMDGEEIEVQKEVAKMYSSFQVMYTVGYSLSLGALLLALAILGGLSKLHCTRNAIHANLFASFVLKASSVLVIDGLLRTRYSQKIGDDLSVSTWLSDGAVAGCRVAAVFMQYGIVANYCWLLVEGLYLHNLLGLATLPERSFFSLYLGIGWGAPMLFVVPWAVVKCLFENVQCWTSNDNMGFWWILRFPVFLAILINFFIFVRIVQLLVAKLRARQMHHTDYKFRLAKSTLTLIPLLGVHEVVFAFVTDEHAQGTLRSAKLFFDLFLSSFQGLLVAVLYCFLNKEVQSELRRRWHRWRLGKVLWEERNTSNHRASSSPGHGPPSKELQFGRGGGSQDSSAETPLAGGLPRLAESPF
T1 sequence (P43220 24-463): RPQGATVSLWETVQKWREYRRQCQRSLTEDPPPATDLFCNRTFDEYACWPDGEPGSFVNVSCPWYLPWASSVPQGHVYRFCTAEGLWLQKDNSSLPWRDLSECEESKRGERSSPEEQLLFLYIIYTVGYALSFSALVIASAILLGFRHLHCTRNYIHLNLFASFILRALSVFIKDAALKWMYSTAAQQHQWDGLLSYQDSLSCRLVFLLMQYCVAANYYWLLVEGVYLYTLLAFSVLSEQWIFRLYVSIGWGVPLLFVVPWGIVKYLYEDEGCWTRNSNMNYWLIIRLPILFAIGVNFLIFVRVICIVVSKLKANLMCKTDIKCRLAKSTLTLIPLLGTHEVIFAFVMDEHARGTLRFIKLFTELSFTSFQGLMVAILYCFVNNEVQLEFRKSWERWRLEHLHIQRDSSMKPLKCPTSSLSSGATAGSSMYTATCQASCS

Row | SMILES | EC50 ([1]; tris-lipidated peptides, mean of n1 and n2, read-out: Primary assay EC50 Mean pM GLP-1R) [pM] | EC50 ([1]; tris-lipidated peptides, replicate n1, read-out: Primary assay EC50 GLP-1R n1) [pM] | EC50 ([1]; tris-lipidated peptides, replicate n2, read-out: Primary assay EC50 GLP-1R n2) [pM] | EC50 (GLP-1R (INS1e assay); tris-lipidated peptides, mean of n1 and n2, read-out: INS1e assay EC50 Mean pM GLP-1R) [pM] | EC50 (GLP-1R (INS1e assay); tris-lipidated peptides, replicate n1, read-out: INS1e assay EC50 GLP-1R n1) [pM] | EC50 (GLP-1R (INS1e assay); tris-lipidated peptides, replicate n2, read-out: INS1e assay EC50 GLP-1R n2) [pM] | EC50 ([2]; tris-lipidated peptides, second replicate, read-out: Primary assay EC50 GIP-R (n2)) [nM] | EC50 ([3]; tris-lipidated peptides, second replicate, read-out: Primary assay EC50 Gluc-R (n2)) [nM] | EC50 ([1]; cAMP assay, first determination (n1), read-out: Primary assay EC50 GLP-1R n1) [pM] | EC50 ([1]; cAMP assay, second determination (n2), read-out: Primary assay EC50 GLP-1R n2) [pM] | EC50 ([1]; mean of n1 and n2, read-out: Mean pM GLP-1R) [pM] | EC50 (GLP-1R (INS1e assay); mono-lipidated peptides, mean of n1 and n2, read-out: INS1e assay EC50 Mean pM GLP-1R) [pM] | EC50 (GLP-1R (INS1e assay); mono-lipidated peptides, replicate n1, read-out: INS1e assay EC50 GLP-1R n1) [pM] | EC50 (GLP-1R (INS1e assay); mono-lipidated peptides, replicate n2, read-out: INS1e assay EC50 GLP-1R n2) [pM] | EC50 ([2]; Primary assay EC50 GIP-R (n1), cAMP assay, first determination (n1)) [nM] | EC50 ([2]; read-out: Primary assay EC50 GIP-R (n2), cAMP assay, second determination (n2)) [nM] | EC50 ([3]; Primary assay EC50 Gluc-R (n1), cAMP assay, first determination (n1)) [nM] | EC50 ([3]; read-out: Primary assay EC50 Gluc-R (n2), cAMP assay, second determination (n2)) [nM]
1 | CCCCCCCCCCCC(=O)N[C@@H](CCC(=O)NCCOCCOCC(=O)NCCOCCOCC(=O)NCCCC[C@H](NC(=O)[C@H](C)NC(=O)[C@@H](NC(=O)[C@H](Cc1ccccc1)NC(=O)[C@H](CCC(=O)O)NC(=O)[C@](C)(CCCCN)NC(=O)[C@H](C)NC(=O)[C@H](C)NC(=O)[C@H](CCC(=O)O)NC(=O)[C@H](CCCCNC(=O)COCCOCCNC(=O)COCCOCCNC(=O)CC[C@H](NC(=O)CCCCCCCCCCC)C(=O)O)NC(=O)[C@H](CCC(=O)O)NC(=O)[C@H](CCCCNC(=O)COCCOCCNC(=O)COCCOCCNC(=O)CC[C@H](NC(=O)CCCCCCCCCCC)C(=O)O)NC(=O)[C@H](Cc1ccc(O)cc1)NC(=O)[C@H](CO)NC(=O)[C@](C)(CO)NC(=O)[C@@H](NC(=O)[C@H](CC(=O)O)NC(=O)[C@H](CO)NC(=O)[C@@H](NC(=O)[C@](C)(Cc1ccccc1)NC(=O)[C@H](CO)NC(=O)CNC(=O)[C@H](CCC(=O)O)NC(=O)C(C)(C)NC(=O)[C@@H](N)Cc1c[nH]cn1)[C@@H](C)O)C(C)C)[C@@H](C)CC)C(=O)N[C@H](C(=O)N[C@H](C(=O)N[C@@H](CCC(=O)O)C(=O)NCC(=O)NCC(N)=O)C(C)C)C(C)C)C(=O)O [compound 467] (H-H[Aib]EGS[αMeF]TSDV[αMeS]SYK([AEEA-AEEA-γGlu-Lauroyl])EK([AEEA-AEEA-γGlu-Lauroyl])EAA[αMeK]EFIAK([AEEA-AEEA-γGlu-Lauroyl])VVEGG-NH2; N-terminus assumed) | 55.4 | 49.3 | 61.5 | 8920 | 9920 | 7910 | 19.8 | 19.8 | – | – | – | – | – | – | – | – | – | –
2 | CC[C@H](C)[C@H](NC(=O)[C@](C)(Cc1ccccc1)NC(=O)[C@H](CCC(=O)O)NC(=O)[C@H](CCCCNC(=O)CCCCCNC(=O)CCCCCNC(=O)CCCCCCCCCCCOc1ccc(C(=O)O)cc1)NC(=O)[C@H](C)NC(=O)[C@H](C)NC(=O)[C@H](CCC(=O)O)NC(=O)CNC(=O)[C@H](CCC(=O)O)NC(=O)[C@H](CC(C)C)NC(=O)[C@](C)(Cc1ccccc1)NC(=O)[C@H](CO)NC(=O)[C@](C)(CO)NC(=O)[C@@H](NC(=O)[C@H](CC(=O)O)NC(=O)[C@H](CO)NC(=O)[C@@H](NC(=O)[C@](C)(Cc1ccccc1)NC(=O)[C@H](CO)NC(=O)CNC(=O)[C@H](CCC(=O)O)NC(=O)C(C)(C)NC(=O)[C@@H](N)Cc1c[nH]cn1)[C@@H](C)O)C(C)C)C(=O)N[C@@H](C)C(=O)N[C@@](C)(Cc1ccccc1)C(=O)N[C@H](C(=O)N[C@H](C(=O)N[C@@](C)(CCCCN)C(=O)NCC(=O)NCC(N)=O)C(C)C)C(C)C [compound 141] | – | – | – | – | – | – | – | – | 8.7 | 5 | 6.9 | 41 | 44.7 | 36.7 | ≥ 27 | ≥ 27 | ≥ 27 | ≥ 27
